pIC50: −log10 of the molar value. Like-named read-outs stand apart in the source and are kept apart here.
Tests used:
Format in all cases: biochemical
[1] = target: Human pancreatic cholesterol esterase; assay: Inhibition of cholesteryl 14C-oleate hydrolysis by cholesterol esterase; conditions: for IC50 cholesterol esterase inhibition: 37° C., fifteen minutes, pH 7.5; for IC50: table 3, cholesteryl oleate hydrolysis, read-out: IC50 (nM) Cholesteryl Oleate
[2] = target: human 100 kDa cholesterol esterase; assay: Inhibition of triolein hydrolysis by cholesterol esterase; conditions: table 3; triolein used instead of cholesterol oleate
Method: (§1) Alginic acid from Macrocystis pyrifera (kelp) was dissolved in water at a concentration of 1 mg/ml. This stock solution was used to prepare various polysaccharide concentrations down to 10^-5 mg/ml. Human pancreatic cholesterol esterase was purified as described by Bosner et al., Proc Nat'l. Acad. Sci., 85, 7438 (1988). To measure cholesterol esterase inhibition by alginic acid, 50 μl of cholesterol esterase (10 μg/ml). 75 μl of phosphatidylcholine vesicles containing cholesteryl ^14 C-oleate (1 mM 2,000 CPM/nmole). 25 μl of 100 mM taurocholate, 120 μl of 150 mM Tris. pH 7.5 and 30 μl of test alginic acid solution were incubated at 37° C. for fifteen minutes. The assay was quenched by placing the reaction vessels in a 4° C. ice bath and by adding 0.6 ml of 0.3 N NaOH and 3 ml of benzene/chloroform/methanol (1 0/1.2/0 5). The quenched reactions were vortexed for 30 seconds, centrifuged at 3,000 g for 15 minutes and 1 ml of the upper aqueous phase was added to 7 ml of Aquasol-2 (DuPont) with 0.025 ml of 6 N HCl. These mixtures were vortexed for one minute and counted for ^14 C-oleate The counts were compared to a sample which contained cholesterol esterase but no alginic acid to determine the percentage of inhibition.
(The same assay procedure was used as described in Part I, only triolein was used instead of cholesterol oleate.) As shown in the table below, the IC50 for inhibition of triolein hydrolysis is nearly the same as that for cholesteryl oleate hydrolysis.

cholesterol esterase = assay: Cholesterol esterase inhibition by water extract of baked muffin (stability under baking conditions); conditions: qualitative statement
Method: as §1
The sulfated polysaccharides described here retain their inhibitory activity for prolonged periods at elevated temperatures. […]

[3] = cholesteryl 14C-oleate substrate
[4] = cholesteryl 14C-oleate substrate, molar value assumes a molecular weight (alginic acid 240 kDa, pectin 20 kDa, chitin 300 kDa, cellulose sulfate 500 kDa), read-out: IC50 cholesterol esterase inhibition
[5] = table 2, summary of sulfated polysaccharides, read-out: IC50

Chitosan Sulfate
IC50 cholesterol esterase inhibition [1, 3]: 0.015 µg/mL | pIC50 [1, 4]: 10.52 | pIC50 [1, 5]: 10.52 | IC50 [1]: 0.03 nM | IC50 [2]: 0.16 nM

Chitin Sulfate
pIC50 [1, 5]: 10.22 | IC50 [1]: 0.06 nM | IC50 [2]: 0.14 nM

pectin [reference compound]
Inhibition of cholesterol esterase (in words) ([1]; qualitative statement): does not inhibit cholesterol esterase

Cellulose Sulfate
pIC50 [1, 4]: 10.70 | pIC50 [1, 5]: 10.70 | IC50 [1]: 0.02 nM | Retention of inhibitory activity at elevated temperatures / stability under baking conditions (in words) (cholesterol esterase): stable under baking conditions | IC50 [2]: 0.06 nM

Dextran Sulfate
pIC50 [1, 4]: 10.70 | pIC50 [1, 5]: 10.70 | IC50 [1]: 0.02 nM

Alginic acid [reference compound]
IC50 cholesterol esterase inhibition [1, 3]: 4 µg/mL | pIC50 [1, 4]: 7.70 | Enhancement Factor ([1]; table 1, enhancement of inhibition relative to native alginic acid (fold)): 1.0 | IC50 [1]: 20 nM | IC50 [2]: 42 nM

— patent US5017565A, “Use of sulfated polysaccharides to inhibit pancreatic cholesterol esterase” (priority 1989, dated 1991)
